Columns and labels:
[1] = system: α-glucosidase; assay: HPLC activity-based profiling (microfractionation) of A. asiatica extract for α-glucosidase inhibition; format: biochemical, Saccharomyces cerevisiae; conditions: microfractions of A. asiatica extract, main inhibition window 11.5 to 13.5 min
Procedure: Aliquots (100 µL) of A. asiatica extract solution (10 mg/mL) were separated under analytical HPLC conditions as described in Section 2.4. The collection of eluates (40 µL) performed every 30 s in 96-well plates. After drying and redissolving the eluates in 10 µL of PBS the eluates were investigated as described earlier. α-Glucosidase was dissolved in PBS which contained BSA (0.2%) up to 0.5 U/mL concentration and then added 125 µL of PBS and 60 µL p-nitrophenyl-α-D-glucopyranoside (5 mM). The samples were incubated at 37 °C for 5 min and then 60 µL α-glucosidase (0.4 U/mL) was added. The samples were incubated at 37 °C for 15 min. Then 50 µL sodium carbonate (200 mM) was added. Absorbance (A400) was determined at 400 nm. The rates (1-A400) were carried out to create HPLC-based bioactivity profiles of A. asiatica extract.
To characterize the chemical profile of A. asiatica herb extract microcolumn reversed-phase HPLC-PDA procedure was applied (Figure 3a). […] For identification, the components of interest of A. asiatica herb with high α-glucosidase inhibitory activity, the extract was subjected by HPLC activity-based profiling. To detect of anti-α-glucosidase inhibitors in A. asiatica herb extract, the procedure of small-scale semi-preparative microfractionation by reversed-phase HPLC was applied. […] Subsequently, microfractions were dried and redissolved in a buffer solution. Thereafter, an enzyme solution was added to estimate the inhibition of α-glucosidase by the eluate.

[2] = system: α-glucosidase; set-up: method as in PMID 28045450; conditions: agrimoniin from Comarum palustre herb extract; cited from earlier work
[3] = Stability of A. asiatica phenolics in water media (infusions and decoctions, HPLC-MS quantification); format: physicochemical; conditions: boiling infusion (100 °C) and decoctions
Procedure: Quantification of compounds 1–60 were carried out using HPLC-MS data (full scan MS, peak area). The quantifications were realized under the conditions specified in Section 2.4. For the preparation of the stock solutions, 44 reference compounds (2, 6–16, 19, 23, 26, 28, 31–51, 53–56, 58–60) were carefully weighed (10 mg), then separately dissolved in methanol in a W flask (10 mL). An external standard calibration curve was constructed with the use of six data points (100, 50, 25, 10, 5, and 1 µg/mL). The calibration curves were constructed by plotting the MS peak area vs. concentration levels. Correlation coefficients, r^2; standard deviation, SYX; limits of detection, LOD; limits of quantification, LOQ; linear ranges were computed applying early reference. All analyses were performed in triplicate, data obtained were expressed as mean value ± standard deviation (SD). […] The weight of the tube was reduced to an initial sign after cooling. For analysis, the extract obtained was filtered through 0.22 μm polytetrafluoroethylene (PTFE) syringe filter and then injected into the HPLC system. […]

SMILES	α-glucosidase inhibition of HPLC peaks [1]	content change on heat treatment in water [3]	also measured
O=C(O[C@H]1O[C@@H]2COC(=O)c3cc(O)c(O)c(O)c3-c3c(cc(O)c(O)c3O)C(=O)O[C@H]2[C@@H]2OC(=O)c3cc(O)c(O)c(O)c3-c3c(cc(O)c(O)c3O)C(=O)O[C@@H]12)c1cc(O)c(O)c(Oc2c(C(=O)O[C@H]3O[C@@H]4COC(=O)c5cc(O)c(O)c(O)c5-c5c(cc(O)c(O)c5O)C(=O)O[C@H]4[C@@H]4OC(=O)c5cc(O)c(O)c(O)c5-c5c(cc(O)c(O)c5O)C(=O)O[C@@H]34)cc(O)c(O)c2O)c1 [Compound 36, Agrimoniin]	most pronounced inhibition		inhibitory activity relative to α-glucosidase [2]: high inhibitory activity
O=c1oc2c(O)c(O)cc3c(=O)oc4c(O)c(O)cc1c4c23 [Compound 38, Ellagic acid]	less significant results of inhibition		
O=c1c(O[C@@H]2O[C@H](CO)[C@@H](O)[C@H](O)[C@H]2O)c(-c2ccc(O)c(O)c2)oc2cc(O)cc(O)c12 [Compound 41, Quercetin-3-O-glucoside]			α-glucosidase inhibition of HPLC peaks ([1]; listed as isoquercitrin): less significant results of inhibition
O=C(O)CC(=O)OC[C@H]1O[C@@H](Oc2c(-c3ccc(O)c(O)c3)oc3cc(O)cc(O)c3c2=O)[C@H](O)[C@@H](O)[C@@H]1O [Compound 45, Quercetin-3-O-(6″-O-malonyl)-glucoside]		decreased to trace amounts	
O=C(O)CC(=O)OCC1OC(Oc2cc(-c3cc(=O)c4c(O)cc(O)cc4o3)ccc2O)C(O)C(O)C1O (stereo not drawn) [Compound 53, Luteolin-3-O-(6″-O-malonyl)-glucoside]		decreased to trace amounts	
